Assay results taken from publication PMC7044277 (Nature Communications, 2020).
Values joined by “and” are separate entries in the source; they are usually repeats but may differ in a detail not shown here. Equal entries are not always repeated.

Legend:
DRD2 F1103.28L [1] = target: T1, DRD2 F1103.28L (Homo sapiens, UniProt P14416, F110L); test: Gαi/o-mediated cAMP inhibition (GloSensor), mutant; type: cell-based; conditions: DRD2 F1103.28L (b138 head prints DRD2 F1063.28L)
T1 construct: expressed in transfected cells; host or cells: HEK293T (ATCC CRL-11268)

DRD2 F1103.28A [2] = target: T2, DRD2 F1103.28A (Homo sapiens, UniProt P14416, F110A); test: β-arrestin2 recruitment (Tango), mutant; type: cell-based; set-up: expressed in transfected cells; host or cells: HEK293T (ATCC CRL-11268)
DRD3 = DRD3 (Homo sapiens, UniProt P35462); test: β-arrestin2 recruitment (Tango); type: cell-based; conditions: DRD3; Tango; read-out: EC50 ± SEM
[3] = target: T3, DRD4 (D4.4 variant) wild-type (Homo sapiens, UniProt P21917); test: Radioligand competition binding, [3H]-N-methylspiperone; conditions: DRD4; [3H]-methylspiperone (0.8-1.0 nM); read-out: Ki
T3 sequence (P21917 1-419): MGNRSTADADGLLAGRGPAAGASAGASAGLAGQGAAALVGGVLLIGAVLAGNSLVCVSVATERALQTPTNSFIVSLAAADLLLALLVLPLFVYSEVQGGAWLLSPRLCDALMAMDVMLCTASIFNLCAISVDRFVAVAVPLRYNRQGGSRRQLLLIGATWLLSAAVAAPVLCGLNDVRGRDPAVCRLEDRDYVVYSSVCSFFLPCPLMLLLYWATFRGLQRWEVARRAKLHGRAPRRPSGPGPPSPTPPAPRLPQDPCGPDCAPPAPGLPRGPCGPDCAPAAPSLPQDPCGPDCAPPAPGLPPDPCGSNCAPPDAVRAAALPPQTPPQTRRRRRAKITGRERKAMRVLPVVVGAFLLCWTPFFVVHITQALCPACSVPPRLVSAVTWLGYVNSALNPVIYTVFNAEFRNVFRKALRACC

DRD3 F1063.28A [4] = target: T4, DRD3 F1063.28A (Homo sapiens, UniProt P35462, F106A); test: biochemical; type: binding; conditions: DRD3 F1063.28A; read-out: Ki
DRD2 (D2 long receptor) [5] = target: T5, DRD2 (D2 long receptor) (Homo sapiens, UniProt P14416); test: Gαi/o-mediated cAMP inhibition (GloSensor split-luciferase cAMP reporter), HEK293T; type: cell-based; conditions: for response, Fig_S11d dose-response source data: replicate values;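 on all read-outs here: compounds applied 15 min at room temperature, then luciferin plus 400 nM isoproterenol to raise cAMP through endogenous β2-adrenergic receptors, luminescence read 15 min later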
DRD4 (D4.4 variant) [6] = target: T6, DRD4 (D4.4 variant) (Homo sapiens, UniProt P21917); test: Gαi/o-mediated cAMP inhibition (GloSensor); type: cell-based; conditions: DRD4; agonist, cAMP inhibition; read-out: EC50 ± SEM
T6 sequence (P21917 1-419): T3 sequence (P21917 1-419)

DRD3 F1063.28A [7] = target: T4, DRD3 F1063.28A; test: cell-based; type: cell-based; conditions: DRD3 F1063.28A; Tango; read-out: EC50 ± SEM
DRD3 wild-type = DRD3 wild-type (Homo sapiens, UniProt P35462); test: Radioligand competition binding, [3H]-N-methylspiperone
[8] = target: DRD2 (D2 long receptor) wild-type (Homo sapiens, UniProt P14416); test: Radioligand competition binding, [3H]-N-methylspiperone, HEK293T membranes; conditions: DRD2; [3H]-methylspiperone (0.8-1.0 nM); read-out: Ki
DRD4 (D4.4 variant) [9] = target: T6, DRD4 (D4.4 variant); test: β-arrestin2 recruitment (Tango); type: cell-based; conditions: DRD4; Tango; read-out: EC50 ± SEM
DRD2 F1103.28A [10] = target: T2, DRD2 F1103.28A; test: Gαi/o-mediated cAMP inhibition (GloSensor), mutant; type: cell-based; set-up: expressed in transfected cells; host or cells: HEK293T (ATCC CRL-11268)
DRD2 F1103.28A [11] = target: T2, DRD2 F1103.28A; type: binding; set-up: expressed in transfected cells; host or cells: HEK293T (ATCC CRL-11268); conditions: DRD2 F1103.28A; read-out: Ki
DRD2 F1103.28L [12] = target: T1, DRD2 F1103.28L; test: β-arrestin2 recruitment (Tango), mutant; type: cell-based
DRD2 (D2 long receptor) [13] = target: T5, DRD2 (D2 long receptor); test: β-arrestin2 recruitment (Tango), HTLA cells; type: cell-based; conditions: for response, Fig_S11e dose-response source data: replicate values

T5 sequence (P14416 whole entry): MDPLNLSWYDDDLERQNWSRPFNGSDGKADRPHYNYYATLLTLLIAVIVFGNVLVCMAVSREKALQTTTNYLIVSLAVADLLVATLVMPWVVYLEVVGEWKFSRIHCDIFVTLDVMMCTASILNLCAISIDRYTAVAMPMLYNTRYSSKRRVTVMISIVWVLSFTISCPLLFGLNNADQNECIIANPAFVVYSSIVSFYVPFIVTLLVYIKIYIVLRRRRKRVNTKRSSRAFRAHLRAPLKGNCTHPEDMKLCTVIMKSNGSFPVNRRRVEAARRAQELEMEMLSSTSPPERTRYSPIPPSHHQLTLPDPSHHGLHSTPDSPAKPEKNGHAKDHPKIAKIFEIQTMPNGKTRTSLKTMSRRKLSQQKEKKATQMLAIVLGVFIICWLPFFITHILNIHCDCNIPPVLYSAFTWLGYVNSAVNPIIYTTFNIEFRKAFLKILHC
T2 sequence (P14416 whole entry F110A): as the sequence (P14416 whole entry) above, with F110A counted along it
DRD3 wild-type, sequence (P35462 whole entry): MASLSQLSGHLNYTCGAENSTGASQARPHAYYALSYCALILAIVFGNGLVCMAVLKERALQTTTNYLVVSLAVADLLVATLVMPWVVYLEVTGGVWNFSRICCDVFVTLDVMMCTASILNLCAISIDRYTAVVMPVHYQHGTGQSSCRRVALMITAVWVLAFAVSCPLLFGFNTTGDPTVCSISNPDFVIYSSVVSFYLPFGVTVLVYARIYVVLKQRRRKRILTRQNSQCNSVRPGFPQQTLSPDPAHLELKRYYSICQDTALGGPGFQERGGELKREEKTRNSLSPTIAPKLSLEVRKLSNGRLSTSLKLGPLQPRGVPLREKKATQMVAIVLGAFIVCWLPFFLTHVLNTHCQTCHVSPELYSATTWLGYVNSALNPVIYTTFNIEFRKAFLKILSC
T4 sequence (P35462 whole entry F106A): as the sequence (P35462 whole entry) above, with F106A counted along it
T1 sequence (P14416 whole entry F110L): as the sequence (P14416 whole entry) above, with F110L counted along it
DRD3, sequence (P35462 whole entry): as the sequence (P35462 whole entry) above
DRD2 (D2 long receptor) wild-type, sequence (P14416 whole entry): as the sequence (P14416 whole entry) above

CCOc1cccc2cc(C(C)NCC3(O)CCC3)oc12.Cl (centres unmarked) [O4LE4]
EC50 (DRD2 F1103.28L [1]): > 10 µM | EC50 (DRD2 F1103.28A [2]): > 10 µM | EC50 (DRD3): > 10 µM | Ki [3]: > 10 µM | Ki (DRD3 F1063.28A [4]): > 10 µM | EC50 (DRD2 (D2 long receptor) [5]; DRD2, agonist, Gαi/o-mediated cAMP inhibition, read-out: EC50 ± SEM): > 10 µM | response, Fig_S11d dose-response source data (DRD2 (D2 long receptor) [5]; Log[Drug] -5): 88.7746 and 78.3782 and 91.7272 and 89.26 and 93.9579 and 91.5672 | response, Fig_S11d dose-response source data (DRD2 (D2 long receptor) [5]; Log[Drug] -5.52): 76.2939 and 86.2437 and 82.5466 and 72.7587 and 77.8913 and 84.3113 | response, Fig_S11d dose-response source data (DRD2 (D2 long receptor) [5]; Log[Drug] -6): 73.2172 and 67.3366 and 60.3892 and 68.228 and 67.275 and 64.901 | response, Fig_S11d dose-response source data (DRD2 (D2 long receptor) [5]; Log[Drug] -6.52): 64.6321 and 59.5207 and 69.0487 and 71.8726 and 63.9982 and 65.6366 | response, Fig_S11d dose-response source data (DRD2 (D2 long receptor) [5]; Log[Drug] -7): 48.9755 and 46.0724 and 53.9876 and 53.6995 and 51.8772 and 46.0423 | response, Fig_S11d dose-response source data (DRD2 (D2 long receptor) [5]; Log[Drug] -7.52): 42.028 and 41.6806 and 36.1226 and 35.9109 and 33.9715 and 35.5263 | response, Fig_S11d dose-response source data (DRD2 (D2 long receptor) [5]; Log[Drug] -8): 31.6316 and 34.088 and 41.4325 and 32.2829 and 31.564 and 29.1733 | response, Fig_S11d dose-response source data (DRD2 (D2 long receptor) [5]; Log[Drug] -8.52): 10.5658 and 5.306 and 29.9195 and 26.7491 and 32.2996 and 23.9905 | response, Fig_S11d dose-response source data (DRD2 (D2 long receptor) [5]; Log[Drug] -9): 29.0014 and 17.2156 and 19.2005 and 25.2611 | response, Fig_S11d dose-response source data (DRD2 (D2 long receptor) [5]; Log[Drug] -9.52): 13.8163 and 7.489 and 22.6246 and 25.1441 and 33.3529 and 8.96 | response, Fig_S11d dose-response source data (DRD2 (D2 long receptor) [5]; Log[Drug] -10): 3.445 and 9.573 and 23.9738 and 15.1965 and 19.209 | response, Fig_S11d dose-response source data (DRD2 (D2 long receptor) [5]; Log[Drug] -10.52): 10.9876 and 14.9328 and 18.3073 and 10.6825 and 15.9488 | response, Fig_S11d dose-response source data (DRD2 (D2 long receptor) [5]; Log[Drug] -11): 8.655 and 3.048 and 14.6949 and 5.45 and 17.0857 | response, Fig_S11d dose-response source data (DRD2 (D2 long receptor) [5]; Log[Drug] -11.52): 13.0471 and 8.407 and 20.4163 | response, Fig_S11d dose-response source data (DRD2 (D2 long receptor) [5]; Log[Drug] -12): 4.834 and -8.7134 and -10.8678 and -0.937 | EC50 (DRD4 (D4.4 variant) [6]): > 10 µM | EC50 (DRD3 F1063.28A [7]): > 10 µM | Ki (DRD3 wild-type; DRD3, [3H]-methylspiperone (0.8-1.0 nM), read-out: Ki): 4.07 µM | pKi ± SEM (DRD3 wild-type; DRD3 wild-type): 5.39±0.09 | Ki [8]: > 10 µM | EC50 (DRD4 (D4.4 variant) [9]): > 10 µM | EC50 (DRD2 F1103.28A [10]): > 10 µM | Ki (DRD2 F1103.28A [11]): > 10 µM | EC50 (DRD2 F1103.28L [12]): > 10 µM | Emax relative to quinpirole response (DRD2 (D2 long receptor) [13]; DRD2, Tango): 31.72% | EC50 (DRD2 (D2 long receptor) [13]; DRD2, β-arrestin2 recruitment (Tango), read-out: EC50 ± SEM): 4.89 ± 0.671 µM | response, Fig_S11e dose-response source data (DRD2 (D2 long receptor) [13]; Log[Drug] -6.52): 6.042 | response, Fig_S11e dose-response source data (DRD2 (D2 long receptor) [13]; Log[Drug] -7): 4.575 and 5.092 and 4.213 and 4.207 and 4.48 | response, Fig_S11e dose-response source data (DRD2 (D2 long receptor) [13]; Log[Drug] -7.52): 3.784 and 4.2108 and 4.594 and 4.116 and 3.67 | response, Fig_S11e dose-response source data (DRD2 (D2 long receptor) [13]; Log[Drug] -8): 3.831 and 3.706 and 4.29 and 4.002 and 5.34 | response, Fig_S11e dose-response source data (DRD2 (D2 long receptor) [13]; Log[Drug] -8.52): 4.064 and 3.966 and 4.203 and 4.282 and 4.286 | response, Fig_S11e dose-response source data (DRD2 (D2 long receptor) [13]; Log[Drug] -9): 3.882 and 3.744 and 4.042 and 3.918 and 3.839 | response, Fig_S11e dose-response source data (DRD2 (D2 long receptor) [13]; Log[Drug] -9.52): 3.68 and 4.032 and 4.215 and 3.926 and 3.7929 | response, Fig_S11e dose-response source data (DRD2 (D2 long receptor) [13]; Log[Drug] -10): 3.326 and 3.898 and 4.025 and 3.996 | response, Fig_S11e dose-response source data (DRD2 (D2 long receptor) [13]; Log[Drug] -10.52): 3.698 and 4.067 and 4.341 and 4.225 and 3.808 | response, Fig_S11e dose-response source data (DRD2 (D2 long receptor) [13]; Log[Drug] -11): 4.084 and 3.675 and 4.011 and 3.975 and 3.611 | response, Fig_S11e dose-response source data (DRD2 (D2 long receptor) [13]; Log[Drug] -11.52): 3.79 and 4.079 and 4.55 and 4.262 and 4.155 | response, Fig_S11e dose-response source data (DRD2 (D2 long receptor) [13]; Log[Drug] -12): 5.029 and 3.661 and 4.455 and 4.071 and 4.046
